Entries after “also recorded” stand apart in the source; their conditions may differ.
Key:
Type in all cases: biochemical
T7 RNA polymerase [1] = biological target: T1, T7 RNA polymerase (Escherichia phage T7, UniProt P00573); assay: Real-time RNA transcription reaction with T7 polymerase (fluorescence, TECAN plate reader); details: 10 mM VRC, room temperature (~20° C.), 9000 seconds, FIG. 1A
Protocol: Methods: A series of standard RNA transcription reactions were performed using T7 polymerase spiked with 0 mM, 0.1 mM, 1 mM, and 10 mM VRC. The reaction was performed at room temperature (˜20° C.) for 9000 seconds in a TECAN plate reader. Reaction yield was measured in reach reaction by measuring fluorescence in real-time using the TECAN plate reader.

T7 RNA polymerase [2] = biological target: T1, T7 RNA polymerase; assay: RNA yield after post-reaction clean-up, T7 polymerase transcription (NanoDrop UV-Vis); details: 37° C., 4 hours, FIG. 2
Protocol: Methods: A series of standard RNA transcription reactions were performed using T7 polymerase spiked with 0 mM, 0.1 mM, 1 mM, and 10 mM VRC. The reaction was performed at 37° C. for 4 hours in a thermocycler. A post-reaction clean-up was used to remove any reagents, including enzymes, NTPs, buffers. The reaction was quantified using a NanoDrop UV-Vis spectrometer.

SP6 RNA polymerase = biological target: T2, SP6 RNA polymerase (Enterobacteria phage SP6, UniProt P06221); assay: Real-time monitoring of SP6 RNA polymerase transcription reaction; details: FIG. 1B
T2 sequence (P06221 1-874): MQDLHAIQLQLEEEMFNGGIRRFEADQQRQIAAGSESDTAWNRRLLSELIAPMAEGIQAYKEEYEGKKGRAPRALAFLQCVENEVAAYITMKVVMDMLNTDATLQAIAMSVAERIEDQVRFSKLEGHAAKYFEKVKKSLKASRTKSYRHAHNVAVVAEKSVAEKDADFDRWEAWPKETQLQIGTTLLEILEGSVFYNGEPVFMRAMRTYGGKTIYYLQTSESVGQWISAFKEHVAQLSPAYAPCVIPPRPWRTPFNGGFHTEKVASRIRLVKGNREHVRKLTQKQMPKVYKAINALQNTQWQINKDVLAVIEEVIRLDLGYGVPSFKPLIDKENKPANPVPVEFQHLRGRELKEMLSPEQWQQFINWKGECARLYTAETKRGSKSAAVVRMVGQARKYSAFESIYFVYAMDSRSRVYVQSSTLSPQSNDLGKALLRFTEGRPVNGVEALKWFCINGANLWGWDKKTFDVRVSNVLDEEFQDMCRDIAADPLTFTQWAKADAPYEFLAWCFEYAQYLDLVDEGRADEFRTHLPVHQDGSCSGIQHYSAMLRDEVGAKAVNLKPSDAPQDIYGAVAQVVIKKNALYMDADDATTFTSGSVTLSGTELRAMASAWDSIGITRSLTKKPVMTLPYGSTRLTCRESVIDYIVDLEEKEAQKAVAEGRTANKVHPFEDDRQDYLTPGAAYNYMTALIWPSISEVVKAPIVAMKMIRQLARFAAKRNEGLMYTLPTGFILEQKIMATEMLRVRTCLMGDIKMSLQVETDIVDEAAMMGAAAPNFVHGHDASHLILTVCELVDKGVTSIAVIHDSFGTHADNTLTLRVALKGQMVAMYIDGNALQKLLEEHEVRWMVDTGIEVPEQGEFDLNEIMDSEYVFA
Protocol: Turning to FIGS. 1A-1B, exemplary data of RNA yield measured from real time monitoring of RNA transcription reactions in accordance with certain embodiments are illustrated. In particular, FIG. 1A illustrates exemplary T7 RNA polymerase transcription reaction embodiments using 0.1 mM, 1 mM, and 10 mM concentrations of VRC against a 0 mM control.
However, FIG. 1B illustrates exemplary SP6 RNA polymerase transcription reaction embodiments using 0.1 mM, 1 mM, and 10 mM concentrations of VRC against a 0 mM control.

T7 RNA polymerase [3] = biological target: T1, T7 RNA polymerase; assay: Gel electrophoresis of T7 transcription reaction products; details: 0.1 mM, 1 mM, 10 mM VRC versus 0 mM control; FIG. 3
Protocol: Methods: A series of standard RNA transcription reactions were performed using T7 polymerase spiked with 0 mM, 0.1 mM, 1 mM, and 10 mM VRC. Post-incubation, the contents of each reaction were electrophoresed on a gel to qualitatively identify reaction product sizes.

T1 sequence (P00573 whole entry): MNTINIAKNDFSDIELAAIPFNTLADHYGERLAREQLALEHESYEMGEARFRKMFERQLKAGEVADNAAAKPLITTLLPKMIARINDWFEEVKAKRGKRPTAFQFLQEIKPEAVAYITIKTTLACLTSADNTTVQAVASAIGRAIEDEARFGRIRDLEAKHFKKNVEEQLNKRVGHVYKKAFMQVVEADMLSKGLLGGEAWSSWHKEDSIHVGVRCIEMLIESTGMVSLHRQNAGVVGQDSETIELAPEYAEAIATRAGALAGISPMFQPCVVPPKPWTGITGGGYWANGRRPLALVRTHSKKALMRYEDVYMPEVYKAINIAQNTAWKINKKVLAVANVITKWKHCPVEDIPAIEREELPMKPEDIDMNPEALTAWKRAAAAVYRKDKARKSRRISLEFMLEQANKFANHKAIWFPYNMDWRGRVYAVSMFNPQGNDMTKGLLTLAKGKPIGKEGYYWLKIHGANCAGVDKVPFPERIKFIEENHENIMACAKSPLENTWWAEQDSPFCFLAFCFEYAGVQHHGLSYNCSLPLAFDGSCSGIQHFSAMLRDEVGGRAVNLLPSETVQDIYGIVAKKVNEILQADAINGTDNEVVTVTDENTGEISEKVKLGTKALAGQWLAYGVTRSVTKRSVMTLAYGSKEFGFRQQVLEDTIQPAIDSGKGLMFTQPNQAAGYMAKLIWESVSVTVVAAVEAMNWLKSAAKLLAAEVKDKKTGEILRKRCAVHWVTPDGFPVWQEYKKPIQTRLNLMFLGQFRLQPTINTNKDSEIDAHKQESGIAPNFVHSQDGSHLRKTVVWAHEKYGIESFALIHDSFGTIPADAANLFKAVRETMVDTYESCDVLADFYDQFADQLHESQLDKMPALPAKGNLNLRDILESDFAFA

In the case of ribonucleoside vanadyl complex [VRC], the “increase in RNA yield over 0 mM control” value (T7 RNA polymerase [1]) is reported as ~1.5 fold, the “increase in RNA yield over 0 mM control” value (T7 RNA polymerase [2]; 0.1 mM VRC) is reported as “approximately 2.3 fold” and the “increase in RNA yield over 0 mM control” value (T7 RNA polymerase [2]; 1 mM VRC) is reported as “approximately 1.7 fold”. The “increase in RNA yield over 0 mM control” value (T7 RNA polymerase [2]; 10 mM VRC) was “approximately 1.5 fold”, the “RNA yield versus 0 mM control” value (SP6 RNA polymerase; 0.1 mM VRC) was “no advantage in yield over the control” and the “RNA yield versus 0 mM control” value (SP6 RNA polymerase; 1 mM VRC) was “inhibition of SP6 RNA polymerase”. For the same substance, the “RNA yield versus 0 mM control” value (SP6 RNA polymerase; 10 mM VRC) was “inhibition of SP6 RNA polymerase” and the “reaction product sizes / degradation products on gel” value (T7 RNA polymerase [3]) was “no degradation of products; also recorded: no discernable differences in product sizes”.

Reference: US20230272465A1, “Systems and Methods to Enhance RNA Transcription and Uses Thereof” (The Board of Trustees of the Leland Stanford Junior …, priority 2020, published 2023)
